Read-outs that look alike come from different tables or passages of the source.

The nature of data set [1]: BYL-719 induced hyperglycemia in C57Bl/6 mice, ZGN-1061 pre-treatment. The data set is classed as in vivo. As for the experimental part: The following is an example showing that MetAP2 inhibitors, specifically ZGN-1061 can be used in combination with PI3K inhibitors, specifically BYL-719, to treat cancer and to attenuate treatment-induced metabolic dysfunction. In this example, male C57BI/6 mice, age 10-12 weeks, were used. The mice (n=8/treatment group) were administered doses of either vehicle control (10 mM phosphate in 5% mannitol, pH 7.2), ZGN-1061 alone, ZGN-1061 in combination with BYL-719 or BYL-719 alone, as indicated in Table 4. In Table 4, the time of dose indicates the time relative to the administration of BYL-719. Blood glucose was monitored using 10 ul of blood taken from the tail of the mice and a glucometer, starting prior to the BYL-719 administration (time 0) and then again at various times points (15, 30, 60, 90, 120 and 180 minutes) after the administration of BYL-719.

The conditions of data set [2]: human, in vivo; cited from earlier work.
For data set [3] the following is noted: cited from earlier work.
The conditions of data set [4]: cited from earlier work. This is another data set of the same source.
For data set [5] the following is noted: requires extended intravenous administration; cited from earlier work.

For `Cc1nc(NC(=O)N2CCC[C@H]2C(N)=O)sc1-c1ccnc(C(C)(C)C(F)(F)F)c1` [BYL-719, alpelisib], the blood glucose entry in data set [1] (BYL-719 45 mg/kg PO, male C57Bl/6 mice) is “elicited robust hyperglycemia”.

For the molecule pembrolizumab, in data set [2], the “patients with grade 3 or 4 hyperglycemia” value is 3-6% and the “patients with hyperglycemic events” value was 45-49%.

`CO[C@@H]1[C@H](OC(=O)N2CC(CCN3CCOCC3)C2)CC[C@]2(CO2)[C@H]1[C@@]1(C)O[C@@H]1CC=C(C)C` [ZGN-1061]: the “hyperglycemia induced by BYL-719” value in data set [1] (pre-treatment 0.5 mg/kg SC at -4 h, -24 h or -72 h (QD x3) before BYL-719 45 mg/kg PO) was “attenuated hyperglycemia”.

For the molecule `CO[C@@H]1[C@H](OC(=O)/C=C/c2ccc(OCCN(C)C)cc2)CC[C@]2(CO2)[C@H]1[C@@]1(C)O[C@@H]1CC=C(C)C` [CKD-732], the body weight result in data set [3] (C57BL/6J mice and SD rats, 5 mg/kg/day) is reported as “weight loss”. Besides, the MTD in data set [4] (every fourth day schedule, confusion and insomnia) is reported as 15 mg/m2/day.

On to `CO[C@@H]1[C@H](OC(=O)NC(=O)CCl)CC[C@]2(CO2)[C@H]1[C@@]1(C)O[C@@H]1CC=C(C)C` [TNP-470, chloroacetylcarbamoylfumagillol], for which, in data set [3] (mice, 15 or 20 mg/kg every other day), the obesity result is listed as “prevention of obesity”. The body weight result in data set [3] (ob/ob mice, daily doses 2.5 mg/kg to 10 mg/kg) is reported as “weight loss”. Moreover, the toxicity in humans result in data set [4] (dose-limiting neurotoxicity) is “too toxic for human use”. The MTD in data set [4] (in combination with paclitaxel, dosed three times per week, neuropsychiatric toxicities) is recorded as 60 mg/m2. The half-life entry in data set [5] is reported as “short half-life”.

Turning to `CO[C@@H]1[C@H](OC(=O)/C=C/C=C/C=C/C=C/C(=O)O)CC[C@]2(CO2)[C@H]1[C@@]1(C)O[C@@H]1CC=C(C)C` [fumagillin], in data set [3] (C57BL/6 mice, oral 1 mg/kg daily), the body weight entry is recorded as “weight loss”.

These data come from patent US11612577B2, “Biomarkers of METAP2 inhibitors and applications thereof” (SynDevRx, Inc., priority 2018, dated 2023).
